Source: patent US9744252B2, “Compounds for binding to the platelet specific glycoprotein IIb/IIIa and their use for imaging of thrombi” (PIRAMAL IMAGING SA, priority 2011, dated 2017)
Values joined by “and” are separate entries in the source; they are usually repeats but may differ in a detail not shown here. Identical values can stand only once. “Also recorded” adds a separate entry of the source. Like-named read-outs stand apart in the source and are kept apart here. Each block holds one molecule with its values, some of them ahead of it.

Experiments:
human thrombi = assay: Ex vivo blood flow model: binding to human thrombi, with cold-compound competition; settings: 3 minutes post-injection of 18F-labeled compound; ± SEM
Text: Binding to Human Thrombi:
The binding of compounds to thrombi was further investigated in an ex vivo blood flow model similar to that described in “Wakhloo, A. K. et al. Thrombus and stroke 2008, in vitro models 57-66” but modified with regard to thrombus development. Briefly, an open handmade tube-set consisting of tygon-tubes (Tygon R-1000, part No AAU00007: I.D. 3.2 mm, O.D. 6.4 mm, Saint Gobain Performance Plastics North America), intermediate tubes (Intrafix® Infusion set, B. Braun, Melsungen, Germany) an open reservoir (10 mL Combitip, Eppendorf) and a chamber made of a piece of polyethylene-Tube, ([…] Polyethylene Tubing, Clay Adams, PE160, length: 6.5 cm) containing a loop of a roughened thread (fishing line: Okuma UltraMax whitefish, diameter: 0.14 mm, length: 5 cm; sandpaper: CAMI Grit designation: 600, CP918a, VSM) was used for thrombus formation. The connection between the intermediate tube and the thrombus chamber was made by trimmed tips (epTIPS, 200 μL, Eppendorff, Hamburg/Germany). The Reservoir and the thrombus chamber were fixed by clamps and stands. A peristaltic-pump (Minipuls 3, Gilson, Middelton/USA) was used to pump the blood around thereby adjusting the flow in the middle of the thrombus chamber to 70-90 cm per second, which was monitored by ultrasound Doppler measurement (Vevo 770 High-Resolution In Vivo Micro-Imaging System, VisualSonics, Toronto/Ontario, Canada; Scanhead: RMV 704, 40 MHz). The volume of the entire tube-set was 7.5 or 15 mL.
For each experiment fresh blood was taken from a volunteer using 10 mL citrate-tubes (Sarstedt S-Monovette 02.1067.001, 10 mL, Citrate 3.13%) and immediately laid into the turning-device of an incubator at a temperature of 37° C. (Heraeus miniTherm CTT with integrated rotation- and turning device, turning speed: 19 rotations per minute, Heraeus Instruments GmbH, Hanau/Germany). As needed, two tubes were taken out of the turning-device and 15 mL were transferred to a 20 mL Syringe (Omnifix®, B. Braun, Melsungen/Germany) and gently mixed with 0.75 mL CaCl2—Solution before the peristaltic pump was started and the whole content of the syringe was transferred into the reservoir of the tube-set via a cell strainer (BD Falcon™ cell strain, 40 μm, BD, Franklin Lakes, N.J. USA). […] Then, the pump was stopped, aliquots were taken from the blood and the thrombus together with the roughened thread was removed from the thrombus-chamber before both was weighted and measured in a gamma counter (Automatic Gamma Counter Wizard^2 3, Perkin Elmer). […] Finally the activity of the compound in blood and thrombus as well as the ratio between both was determined (cpm/weight [mg]). […]

[1] = Blood clearance in a cynomolgus monkey (PET and gamma counter); assay type: in vivo; settings: 25 MBq i.v., PET
Procedure: FIG. 4: Blood kinetics of the compound described in example 40 in cynomolgus monkey.
PET-imaging was performed continuously from shortly before up to 60 minutes post injection. Venous blood samples were taken at 3, 10, 30 and 60 minutes p.i. and were measured in a gamma-counter (Automatic Gamma Counter Wizard^2 3, Perkin Elmer) and expressed as cpm/mg blood. Additionally, the blood-concentration of the compound was measured from the PET-Image over the whole imaging period and expressed as % ID/g.
Blood Clearance in a Cynomolgus Monkey
The blood clearance of the compound described in example 40 has been determined in a cynomolgus monkey. A female cynomolgus monkey was anesthetized with a mixture of Xylazin (Rompun®, Bayer HealthCare, Leverkusen, Germany), 0.12 mL/kg bodyweight and Ketamine (Ketavet®, Pfizer) 0.12 mL/kg bodyweight i.m. The monkey was placed inside the PET-scanner (Inveon PET/CT, Siemens Medical, Erlangen) and 25 MBq of the compound has been injected i.v. while PET-imaging was performed continuously from shortly before up to 60 minutes post injection. Venous blood samples were taken at 3, 10, 30 and 60 minutes p.i. and were measured in a gamma-counter (Automatic Gamma Counter Wizard^2 3, Perkin Elmer). Additionally, the blood-concentration of the compound was measured from the PET-Image over the whole imaging period (FIG. 4).

[2] = system: arterial and venous thrombi; assay: Thrombus PET imaging and in vivo clot-to-blood ratio in cynomolgus monkeys; design: species or system cynomolgus monkey
Procedure: Thrombus-Imaging in Cynomolgus Monkeys
The ability of the compound described in example 40 for the imaging of thrombi was investigated in a PET-study with cynomolgus monkeys (female, 2.8-3.2 kg).
The first monkey was anesthetized with a mixture of Xylazin (Rompun®, Bayer HealthCare, Leverkusen, Germany), 0.12 mL/Kg and Ketamine (Ketavet®, Pfizer) 0.12 mL/Kg b.w. i.m. and additionally analgesized by an i.m. injection of 6 μg Buprenorphine per kg. While the investigation, small amounts of Ketamine have been injected i.m. if required. The left common carotid artery was exposed surgically and a polyethylene-tube ([…] Polyethylene Tubing, Clay Adams, PE50), which was roughened previously by sandpaper (600—CAMI Grit designation), was inserted into the vessel, advanced into the descending aorta and was left there for 30 minutes to allow for the development of a thrombus on the rough surface of the tube. Meanwhile, the monkey was placed inside the PET-scanner (Inveon PET/CT, Siemens Medical, Erlangen). […] The thickness of this layer was far below 1 mm (see also removed thrombus of Monkey 2, FIG. 7) and therewith also far below the resolution of the image, which is approximately 1 mm. This also means, that even slightest thrombi, even if their size is far less than the resolution of the imaging-device, can be visualized due to the massive accumulation of compound on the platelets of the thrombi.
At the end of the experiment the tube was removed carefully from the vessel before it was weighted and measured in a gamma counter (Automatic Gamma Counter Wizard^2 3, Perkin Elmer). […] Finally the activity of the compound in blood and thrombus as well as the ratio between the two was determined (cpm/weight [mg]). […]
The in vivo clot-to-blood ratio was determined from 5 thrombi out of the above described monkey experiments. As already mentioned above the thrombi had been removed from the vessels after imaging and had been weighted and measured in a gamma-counter (Automatic Gamma Counter Wizard^2 3, Perkin Elmer) together with blood samples taken from the animal. After incubation of the thrombi in Plasmin (Plasmin from Human Plasma, Sigma Aldrich, Plasmin-stock-solution: 500 μg Plasmin in 500 μL Tris-buffer (150 μM, pH 7.8), 20 μL Plasmin-stock-solution to 230 μL saline solution 0.9%) and removal of the thrombi from the catheter tubes, the netto weight of the thrombi was calculated and the concentration of the compound in thrombus (clot) and blood, as well as the ratio between the two was calculated.

[3] = male, Wistar, rat, 0.3 μM, pH 7.4
Procedure: (§1) Human liver microsomes in suspension (protein content 0.5 mg/mL) were used for metabolic stability studies. The incubation concentration was 0.3 μM. […] After addition of 30 μL of test compound the assay was started. The compound was dissolved in an organic solvent and diluted with the same liver microsome medium in order to keep the organic content below the recommended concentration (dimethylsulfoxide DMSO <0.2% and methanol <1%). […] The samples were frozen over night at −20° C. The solutions were centrifuged for 15 min at 3000 g. The clear supernatant (100 μL) was used to determine the concentration. The analysis was performed with an Agilent 1200 HPLC system with a LCMS/MS detector.
(§2) The susceptibility of investigated compounds to degradation by phase-I oxidative metabolism was investigated using liver microsomes from different species.

[4] = both, human, 0.3 μM, pH 7.4
Procedure: as §1, §2

[5] = female, cynomolgus monkey, 0.3 μM, pH 7.4
Procedure: as §1, §2

[6] = In vitro metabolic stability in liver microsomes, mouse; assay type: in vitro ADME; settings: NMRI, female, 0.3 μM, calculated
Procedure: In Vitro Metabolic Stability in Liver Microsomes
The incubation concentration was 0.3 μM. […] The samples were frozen over night at −20° C.
The recovery was almost 100% for all investigated species.

[7] = In vitro metabolic stability in liver microsomes, human; settings: all investigated species
Procedure: as §1, §2

[8] = Pharmacokinetics / biodistribution in mice; assay type: in vivo; settings: nude mice, 185 KBq
Procedure: FIG. 3: Biodistribution of the compound described in example 41 in mice.
The biodistribution of the compound described in example 41 was determined in nude mice. Briefly, the mice received 185 KBq of the compound each. At different time points (1, 3, 10, 30, 120 minutes p.i., 3 mice per group) the animals were sacrificed and the organs of interest or aliquots thereof were removed, weighted and finally measured in a gamma counter (Automatic Gamma Counter Wizard^2 3, Perkin Elmer).

SMILES: O=C(O)C[C@H](NC(=O)[C@@H]1CCCN(C(=O)CCC2CCNCC2)C1)c1ccc(OCC[18F])cc1 [Example 39, (3S)-3-[4-(2-[^18F]Fluoroethoxy)phenyl]-3-[({(3R)-1-[3-(piperidin-4-yl)propanoyl]piperidin-3-yl}carbonyl)amino]propanoic acid]
Accumulation Thrombus [10^3 cpm/mg] (human thrombi): 86 ± 9 (n = 6) 10^3 cpm/mg

SMILES: N#Cc1cc(-c2cncc([C@H](CC(=O)O)NC(=O)[C@@H]3CCCN(C(=O)CCC4CCNCC4)C3)c2)ccc1[18F] [Example 42, (3S)-3-[5-(3-Cyano-4-[^18F]fluorophenyl)pyridin-3-yl]-3-[({(3R)-1-[3-(piperidin-4-yl)propanoyl]piperidin-3-yl}carbonyl)amino]propanoic acid]
Accumulation Thrombus [10^3 cpm/mg] (human thrombi): 39 ± 5 (n = 6) 10^3 cpm/mg

contrast in the brain [1]: completely free of contrast | Blood [cpm/mg] ([2]; blood samples after imaging, Cynomolgus monkey): 90 cpm/mg and 130 cpm/mg and 100 cpm/mg
SMILES: O=C(O)C[C@H](NC(=O)[C@@H]1CCCN(C(=O)CCC2CCNCC2)C1)c1cncc(OCC[18F])c1 [Example 40, (3S)-3-[5-(2-[^18F]Fluoroethoxy)pyridin-3-yl]-3-[({(3R)-1-[3-(piperidin-4-yl)propanoyl]piperidin-3-yl}carbonyl)amino]propanoic acid]
signal in other tissue [1]: only marginal signal visible in any other tissue | PET signal / accumulation in thrombi ([2]; cynomolgus monkeys, 25 MBq or 15 MBq i.v., up to 60 minutes p.i.): bright signal inside the descending aorta alongside the roughened part of the tube; also recorded: all arterial and venous thrombi showed a bright signal; also recorded: surprisingly high accumulation even in slightest venous and arterial thrombi | retention within the thrombus ([2]; cynomolgus monkeys, 60 minutes shown): almost completely remains within the thrombus over a long time | background in surrounding tissue or organ ([2]; cynomolgus monkeys, PET): almost no background in any surrounding tissue or organ

SMILES: O=C(O)C[C@H](NC(=O)[C@@H]1CCCN(C(=O)CCC2CCNCC2)C1)c1cncc(OCCF)c1 [Example 3, (3S)-3-[5-(2-Fluoroethoxy)pyridin-3-yl]-3-[({(3R)-1-[3-(piperidin-4-yl)propanoyl]-piperidin-3-yl}carbonyl)amino]propanoic acid]
CLblood [3]: 2.4 mL/day/kg | CLblood [4]: 2.4 mL/day/kg | CLblood [5]: 2.4 mL/day/kg | CLblood [6]: 2.4 mL/day/kg

SMILES: O=C(O)C[C@H](NC(=O)[C@@H]1CCCN(C(=O)CCC2CCNCC2)C1)c1cncc(OCCF)c1 [Compound 3]
recovery [7]: ~100%

SMILES: O=C(O)C[C@H](NC(=O)[C@@H]1CCCN(C(=O)CCC2CCNCC2)C1)c1cccc(OCC[18F])c1 [Example 38, (3S)-3-[3-(2-[^18F]Fluoroethoxy)phenyl]-3-[({(3R)-1-[3-(piperidin-4-yl)propanoyl]piperidin-3-yl}carbonyl)amino]propanoic acid]
Accumulation Thrombus [10^3 cpm/mg] (human thrombi): 41 ± 3 (n = 5) 10^3 cpm/mg

elimination from the blood [8]: rapidly eliminated from the blood | enhancement in the vessel-wall [8]: no enhancement in the vessel-wall
SMILES: O=C(O)C[C@H](NC(=O)[C@@H]1CCCN(C(=O)CCC2CCNCC2)C1)c1cncc(-c2ccc(OCC[18F])cc2)c1 [Example 41, (3S)-3-{5-[4-(2-[^18F]Fluoroethoxy)phenyl]pyridin-3-yl}-3-[({(3R)-1-[3-(piperidin-4-yl)propanoyl]piperidin-3-yl}carbonyl)amino]propanoic acid]
excretion [8]: quickly excreted over the kidney and liver | Accumulation Thrombus [10^3 cpm/mg] (human thrombi): 44 ± 7 (n = 6) 10^3 cpm/mg
